# Experimental data reported in EPA's ToxRefDB 2.
# Key:
# mouse [1] = conditions: Carcinogenicity, cd1, Oral, Feed, dose end: 104 week, group: systemic
# rat [2] = conditions: Multigenerational reproductive toxicity study, wistar, Oral, Feed, dose end: 2 generation
# rat [3] = conditions: Prenatal developmental toxicity study, sprague dawley, Oral, Gavage/Intubation, dose end: 15 GD
# rabbit = conditions: Prenatal developmental toxicity study, new zealand white, Oral, Gavage/Intubation, dose end: 19 GD
# dog [4] = conditions: Chronic toxicity; beagle; Oral; Feed; dose end: 6 month; group: systemic; systemic / clinical chemistry / cholesterol / cholesterol + systemic / organ weight / liver / absolute + systemic / organ weight / liver / …
# mouse [5] = conditions: Combined chronic toxicity/carcinogenicity, cd1, Oral, Feed, dose end: 104 week, group: systemic
# mouse [6] = conditions: Combined chronic toxicity/carcinogenicity, b6c3f1, Oral, Gavage/Intubation, dose end: 104 week, group: systemic
# rat [7] = conditions: Subchronic oral toxicity in rodents, fischer, Gavage/Intubation, dose end: 14 week, group: systemic
# rat [8] = conditions: Combined chronic toxicity/carcinogenicity, fischer, Oral, Gavage/Intubation, dose end: 104 week, group: systemic
# mouse [9] = conditions: Subchronic oral toxicity in rodents, b6c3f1, Gavage/Intubation, dose end: 14 week, group: systemic
# rat [10] = conditions: Subchronic oral toxicity in rodents, sprague dawley, Feed, dose end: 90 day, group: systemic
# rat [11] = conditions: Multigenerational reproductive toxicity study, sprague dawley, Oral, Feed, dose end: 2 generation
# mouse [12] = conditions: Carcinogenicity; cd1; Oral; Feed; dose end: 80 week; group: systemic; systemic / in life observation / body weight / body weight + systemic / in life observation / body weight / body weight gain + systemic / …
# rat [13] = conditions: Combined chronic toxicity/carcinogenicity, sprague dawley, Oral, Feed, dose end: 2 year, group: systemic
# mouse [14] = conditions: Subchronic oral toxicity in rodents, cd1, Feed, dose end: 90 day, group: systemic
# dog [15] = conditions: Chronic toxicity, beagle, Oral, Feed, dose end: 52 week, group: systemic
# [16] = systemic / organ weight / liver / absolute + systemic / organ weight / liver / relative to body weight + systemic / pathology gross / spleen…
# [17] = systemic / pathology microscopic / liver / [other]
# [18] = group: offspring, systemic / in life observation / body weight / offspring (pup) weight gain + systemic / organ weight / liver / relative to body weight
# [19] = group: offspring, systemic / in life observation / body weight / offspring (pup) weight gain + systemic / organ weight / liver / relative to body weight + …
# [20] = group: parental, systemic / organ weight / kidney / absolute + systemic / organ weight / kidney / relative to body weight + systemic / organ weight / liver…
# [21] = group: reproductive, reproductive / reproductive performance / precoital interval / precoital interval
# [22] = group: developmental, developmental / developmental malformation / bone / bipartite ossification + developmental / developmental malformation / bone / short …
# [23] = group: maternal, systemic / in life observation / body weight / body weight gain
# [24] = group: maternal, systemic / in life observation / body weight / body weight gain + systemic / in life observation / food consumption / food consumption
# [25] = group: developmental, developmental / developmental malformation / bone / incomplete ossification + developmental / developmental malformation / bone / …
# [26] = group: developmental, developmental / developmental malformation / bone / unossified
# [27] = group: maternal, reproductive / reproductive performance / aborted / aborted + systemic / in life observation / body weight / body weight gain
# [28] = systemic / organ weight / liver / absolute + systemic / pathology gross / spleen / enlarged + systemic / pathology microscopic / kidney / …
# [29] = systemic / pathology microscopic / salivary glands / cytoplasmic alteration
# [30] = systemic / pathology microscopic / salivary glands / cytoplasmic alteration + systemic / pathology microscopic / liver / carcinoma
# [31] = systemic / in life observation / body weight / body weight + systemic / in life observation / body weight / body weight gain
# [32] = systemic / in life observation / body weight / body weight + systemic / in life observation / body weight / body weight gain + systemic / …
# [33] = systemic / pathology microscopic / liver / basophilic focus
# [34] = systemic / pathology microscopic / pancreas / atrophy + systemic / pathology microscopic / pancreas / hyperplasia + systemic / pathology …
# [35] = systemic / pathology microscopic / adrenal gland / atrophy + systemic / pathology microscopic / adrenal gland / vacuolization + systemic / …
# [36] = group: offspring, systemic / in life observation / body weight / offspring (pup) weight
# [37] = group: offspring, systemic / in life observation / body weight / offspring (pup) weight + systemic / in life observation / body weight / offspring (pup) …
# [38] = group: parental, systemic / in life observation / body weight / body weight + systemic / in life observation / body weight / body weight gain + systemic / in…
# [39] = systemic / organ weight / kidney / absolute + systemic / organ weight / kidney / relative to brain weight
# [40] = systemic / organ weight / kidney / absolute + systemic / organ weight / kidney / relative to brain weight + systemic / pathology microscopic…
# [41] = systemic / in life observation / body weight / body weight + systemic / in life observation / body weight / body weight gain + systemic / in…
# [42] = systemic / in life observation / food consumption / food consumption
smiles,measurement,setting,value
CNc1cnn(-c2cccc(C(F)(F)F)c2)c(=O)c1Cl [Norflurazon],LOAEL,mouse [1]; [16],58.7 mg/kg/day
same,NOAEL,mouse [1]; [16],12.8 mg/kg/day
same,LEL,mouse [1]; [17],12.8 mg/kg/day
same,NEL,mouse [1]; [17],< 12.8 mg/kg/day
same,LEL,rat [2]; [18],67.8 mg/kg/day
same,LOAEL,rat [2]; [18],67.8 mg/kg/day
same,NEL,rat [2]; [19],13.2 mg/kg/day
same,NOAEL,rat [2]; [19],13.2 mg/kg/day
same,LEL,rat [2]; [20],50.8 mg/kg/day
same,LOAEL,rat [2]; [20],50.8 mg/kg/day
same,NEL,rat [2]; [20],10.2 mg/kg/day
same,NOAEL,rat [2]; [20],10.2 mg/kg/day
same,LEL,rat [2]; [21],102 mg/kg/day
same,LOAEL,rat [2]; [21],102 mg/kg/day
same,NEL,rat [2]; [21],50.8 mg/kg/day
same,NOAEL,rat [2]; [21],50.8 mg/kg/day
same,LEL,rat [3]; [22],400 mg/kg/day
same,LOAEL,rat [3]; [22],> 400 mg/kg/day
same,NEL,rat [3]; [22],200 mg/kg/day
same,NOAEL,rat [3]; [22],≥ 400 mg/kg/day
same,LOAEL,rat [3]; [23],100 mg/kg/day
same,NOAEL,rat [3]; [23],< 100 mg/kg/day
same,LEL,rat [3]; [24],100 mg/kg/day
same,NEL,rat [3]; [24],< 100 mg/kg/day
same,LOAEL,rabbit; [25],30 mg/kg/day
same,NOAEL,rabbit; [25],10 mg/kg/day
same,LEL,rabbit; [26],10 mg/kg/day
same,NEL,rabbit; [26],< 10 mg/kg/day
same,LEL,rabbit; [27],60 mg/kg/day
same,LOAEL,rabbit; [27],60 mg/kg/day
same,NEL,rabbit; [27],30 mg/kg/day
same,NOAEL,rabbit; [27],30 mg/kg/day
same,LEL,dog [4],4.77 mg/kg/day
same,LOAEL,dog [4],4.77 mg/kg/day
same,NEL,dog [4],1.58 mg/kg/day
same,NOAEL,dog [4],1.58 mg/kg/day
same,NEL,mouse [5]; systemic / organ weight / liver / absolute + systemic / organ weight / liver / relative to body weight + systemic / pathology gross / liver…,12.8 mg/kg/day
same,LEL,mouse [5]; [28],58.7 mg/kg/day
same,LOAEL,mouse [5]; [28],58.7 mg/kg/day
same,NOAEL,mouse [5]; [28],12.8 mg/kg/day
"C[C@]12CCC(=O)C=C1CC[C@@H]1[C@@H]2CC[C@]2(C)C(=O)CC[C@@H]12 [4-Androstene-3,17-dione]",LOAEL,mouse [6]; [29],2 mg/kg/day
same,NOAEL,mouse [6]; [29],< 2 mg/kg/day
same,LEL,mouse [6]; [30],2 mg/kg/day
same,NEL,mouse [6]; [30],< 2 mg/kg/day
same,LEL,rat [7]; [31],1 mg/kg/day
same,NEL,rat [7]; [31],< 1 mg/kg/day
same,LOAEL,rat [7]; [32],> 50 mg/kg/day
same,NOAEL,rat [7]; [32],≥ 50 mg/kg/day
same,LEL,rat [8]; [33],10 mg/kg/day
same,NEL,rat [8]; [33],< 10 mg/kg/day
same,LOAEL,rat [8]; [34],50 mg/kg/day
same,NOAEL,rat [8]; [34],20 mg/kg/day
same,LEL,mouse [9]; systemic / pathology microscopic / adrenal gland / atrophy,5 mg/kg/day
same,NEL,mouse [9]; systemic / pathology microscopic / adrenal gland / atrophy + systemic / pathology microscopic / adrenal gland / vacuolization,1 mg/kg/day
same,LOAEL,mouse [9]; [35],> 50 mg/kg/day
same,NOAEL,mouse [9]; [35],≥ 50 mg/kg/day
"CCCOC(=O)c1ccc(C(=O)OCCC)nc1 [Dipropyl pyridine-2,5-dicarboxylate]",LEL,rat [10]; systemic / hematology / hematocrit (hct) / hematocrit (hct),500 mg/kg/day
same,LOAEL,rat [10]; [32],1000 mg/kg/day
same,NEL,rat [10]; [32],250 mg/kg/day
same,NOAEL,rat [10]; [32],500 mg/kg/day
same,LEL,rat [11]; [36],289 mg/kg/day
same,LOAEL,rat [11]; [36],289 mg/kg/day
same,NEL,rat [11]; [37],72.9 mg/kg/day
same,NOAEL,rat [11]; [37],72.9 mg/kg/day
same,LOAEL,rat [11]; [38],1020 mg/kg/day
same,NEL,rat [11]; [38],66 mg/kg/day
same,NOAEL,rat [11]; [38],255 mg/kg/day
same,LEL,"rat [11]; group: parental, systemic / in life observation / food consumption / food consumption",255 mg/kg/day
same,LEL,mouse [12],494 mg/kg/day
same,LOAEL,mouse [12],494 mg/kg/day
same,NEL,mouse [12],124 mg/kg/day
same,NOAEL,mouse [12],124 mg/kg/day
same,LEL,rat [13]; [39],250 mg/kg/day
same,LOAEL,rat [13]; [39],250 mg/kg/day
same,NEL,rat [13]; [40],65 mg/kg/day
same,NOAEL,rat [13]; [40],65 mg/kg/day
same,LOAEL,mouse [14]; [41],2000 mg/kg/day
same,NOAEL,mouse [14]; [41],1000 mg/kg/day
same,LEL,mouse [14]; systemic / organ weight / kidney / absolute + systemic / organ weight / kidney / relative to body weight,500 mg/kg/day
same,NEL,mouse [14]; systemic / organ weight / kidney / relative to body weight + systemic / organ weight / liver / relative to body weight,250 mg/kg/day
same,LOAEL,dog [15]; systemic / in life observation / body weight / body weight gain,148 mg/kg/day
same,NOAEL,dog [15]; systemic / in life observation / body weight / body weight gain + systemic / in life observation / body weight / body weight + systemic / in…,34.3 mg/kg/day
same,LEL,dog [15]; [42],8.12 mg/kg/day
same,NEL,dog [15]; [42],< 8.12 mg/kg/day
